Laboratory results taken from publication PMC11637875, “Discovery of novel PARP1/NRP1 dual-targeting inhibitors with strong antitumor potency” (Frontiers in Pharmacology, 2024).
pIC50, pKd: −log10 of the molar value.

Tests used:
EPHA3 = EPHA3 (Homo sapiens, UniProt P29320); assay: Selectivity profile (123 kinase panel); assay type: biochemical
HUVECs = assay: Tube formation analysis; assay type: cell-based, human
Description: 50 μL of thawed Matrigel (#356234, BD Biosciences, United States) was added to a 96-well plate and incubated at 37°C for 30 min. After Matrigel gelation, HUVECs (1 × 10^5 cells/mL) were seeded into the basement membrane matrix. Each well was filled with 100 μL of cell suspension. […] Finally, five randomly selected fields per well were photographed with an inverted light microscope. The results were analyzed by ImageJ software to measure and record the number of branch points and tube length for each field. The specific steps are to download the “angiogenesis analyzer” plugin and click on ImageJ, Plugings, Macros, Install, angiogenesis analyzer in sequence. At least three parallel replicates were performed for each condition. The relative number of tubes formation was analyzed using GraphPad Prism 9 software.

ALK4 = ALK4 (Homo sapiens, UniProt P36896); assay: Selectivity profile (123 kinase panel); assay type: biochemical
PARP10 [1] = biological target: T1, PARP10 (Homo sapiens, UniProt Q53GL7); assay: Selectivity profile (other isoforms of PARP and NRP family); assay type: biochemical
HIPK2 = HIPK2 (Homo sapiens, UniProt Q9H2X6); assay: Selectivity profile (123 kinase panel); assay type: biochemical
AurA = AurA (Homo sapiens, UniProt O14965); assay: Selectivity profile (123 kinase panel); assay type: biochemical
AMPKα2/β1/γ1 = AMPKα2/β1/γ1 (Homo sapiens, UniProt P54619+P54646+Q9Y478); assay: Selectivity profile (123 kinase panel); assay type: biochemical
NIM1K = NIM1K (Homo sapiens, UniProt Q8IY84); assay: Selectivity profile (123 kinase panel); assay type: biochemical
ABL2 = ABL2 (Homo sapiens, UniProt P42684); assay: Selectivity profile (123 kinase panel); assay type: biochemical
DDR2 = DDR2 (Homo sapiens, UniProt Q16832); assay: Selectivity profile (123 kinase panel); assay type: biochemical
PARP3 = PARP3 (Homo sapiens, UniProt Q9Y6F1); assay: Specificity testing by MST assay; assay type: binding
Description: (§1) All samples were diluted in 1 × PBST. […] Affinity Analysis software.

PARP2 = PARP2 (Homo sapiens, UniProt Q9UGN5); assay: Specificity testing by MST assay; assay type: binding
Description: as §1

PARP10 [2] = biological target: T1, PARP10; assay: Specificity testing by MST assay; assay type: binding
Description: as §1

PARP12 = PARP12 (Homo sapiens, UniProt Q9H0J9); assay: Specificity testing by MST assay; assay type: binding
Description: as §1

CHEK2 = CHEK2 (Homo sapiens, UniProt O96017); assay: Specificity testing by MST assay; assay type: binding
Description: as §1

PARP15 = PARP15 (Homo sapiens, UniProt Q460N3); assay: Specificity testing by MST assay; assay type: binding
Description: as §1

PARP7 = PARP7 (Homo sapiens, UniProt Q7Z3E1); assay: Specificity testing by MST assay; assay type: binding
Description: as §1

PARP13 = PARP13 (Homo sapiens, UniProt Q7Z2W4); assay: Specificity testing by MST assay; assay type: binding
Description: as §1

RAD51 = RAD51 (Homo sapiens, UniProt Q06609); assay: Specificity testing by MST assay; assay type: binding
Description: as §1

PARP9 = PARP9 (Homo sapiens, UniProt Q8IXQ6); assay: Specificity testing by MST assay; assay type: binding
Description: as §1

NRP2 = NRP2 (Homo sapiens, UniProt O60462); assay: Specificity testing by MST assay; assay type: binding
Description: as §1

ATR = ATR (Homo sapiens, UniProt Q13535); assay: Specificity testing by MST assay; assay type: binding
Description: as §1

PARP8 = PARP8 (Homo sapiens, UniProt Q8N3A8); assay: Specificity testing by MST assay; assay type: binding
Description: as §1

PARP14 = PARP14 (Homo sapiens, UniProt Q460N5); assay: Specificity testing by MST assay; assay type: binding
Description: as §1

EPHA1 = EPHA1 (Homo sapiens, UniProt P21709); assay: Selectivity profile (123 kinase panel); assay type: biochemical
CLK3 = CLK3 (Homo sapiens, UniProt P49761); assay: Selectivity profile (123 kinase panel); assay type: biochemical
[3] = In vivo pharmacokinetic studies; design: species or system SD rats; conditions: Sprague-Dawley (SD), rat, plasma, po, 10 mg/kg
Description: Blood samples (0.25 mL) were collected at 0.25, 0.5, 1, 2, 4, 8, 16, and 24 h after administration and centrifuged to obtain the plasma fraction. In a 96-well plate, the plasma sample (50 μL) was transferred, and the internal standard methanol/acetonitrile (1:1, v/v) solution (200 μL) was added. After vortexing for 5 min, the mixture was centrifuged (12,000 rpm, 5 min) and the supernatant was obtained (60.0 μL). Liquid chromatography and tandem mass spectrometry (LC-MS/MS) system was used to study pharmacokinetics. The data were processed by Phoenix.

FAK = FAK (Homo sapiens, UniProt Q05397); assay: Selectivity profile (123 kinase panel); assay type: biochemical
BTK = BTK (Homo sapiens, UniProt Q06187); assay: Selectivity profile (123 kinase panel); assay type: biochemical
AKT3 = AKT3 (Homo sapiens, UniProt Q9Y243); assay: Selectivity profile (123 kinase panel); assay type: biochemical
EPHB1 = EPHB1 (Homo sapiens, UniProt P54762); assay: Selectivity profile (123 kinase panel); assay type: biochemical
CK1δ = CK1δ (Homo sapiens, UniProt P48730); assay: Selectivity profile (123 kinase panel); assay type: biochemical
INSR = INSR (Homo sapiens, UniProt P06213); assay: Selectivity profile (123 kinase panel); assay type: biochemical
FER = FER (Homo sapiens, UniProt P16591); assay: Selectivity profile (123 kinase panel); assay type: biochemical
EPHA2 = EPHA2 (Homo sapiens, UniProt P29317); assay: Selectivity profile (123 kinase panel); assay type: biochemical

T1 sequence (Q53GL7 whole entry, canonical isoform): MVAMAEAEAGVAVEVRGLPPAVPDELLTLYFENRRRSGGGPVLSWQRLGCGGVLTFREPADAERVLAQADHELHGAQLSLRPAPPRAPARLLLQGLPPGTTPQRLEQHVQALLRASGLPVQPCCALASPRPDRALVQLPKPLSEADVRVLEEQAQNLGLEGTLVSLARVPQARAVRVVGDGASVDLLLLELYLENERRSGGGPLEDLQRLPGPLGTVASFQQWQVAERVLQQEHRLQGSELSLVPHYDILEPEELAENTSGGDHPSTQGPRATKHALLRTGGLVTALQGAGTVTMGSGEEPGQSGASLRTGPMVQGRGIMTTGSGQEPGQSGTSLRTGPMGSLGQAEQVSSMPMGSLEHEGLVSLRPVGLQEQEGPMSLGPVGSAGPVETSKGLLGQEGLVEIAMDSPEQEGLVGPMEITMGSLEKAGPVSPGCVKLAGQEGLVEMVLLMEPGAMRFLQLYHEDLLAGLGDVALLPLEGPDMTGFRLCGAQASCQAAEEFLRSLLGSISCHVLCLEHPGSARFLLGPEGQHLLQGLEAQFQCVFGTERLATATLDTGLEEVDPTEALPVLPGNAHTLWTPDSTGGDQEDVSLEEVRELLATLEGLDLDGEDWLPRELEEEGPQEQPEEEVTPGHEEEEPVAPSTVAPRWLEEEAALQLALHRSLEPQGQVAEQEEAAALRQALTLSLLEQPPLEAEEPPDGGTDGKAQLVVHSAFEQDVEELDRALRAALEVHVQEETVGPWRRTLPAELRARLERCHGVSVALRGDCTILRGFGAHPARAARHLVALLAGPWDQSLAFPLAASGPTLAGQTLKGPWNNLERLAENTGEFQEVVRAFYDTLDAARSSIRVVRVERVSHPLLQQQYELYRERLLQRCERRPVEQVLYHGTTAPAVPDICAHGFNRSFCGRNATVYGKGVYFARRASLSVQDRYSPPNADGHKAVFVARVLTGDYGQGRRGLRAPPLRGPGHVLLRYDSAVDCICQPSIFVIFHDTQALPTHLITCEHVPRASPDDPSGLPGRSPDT
Sequence of BTK (Q06187 whole entry): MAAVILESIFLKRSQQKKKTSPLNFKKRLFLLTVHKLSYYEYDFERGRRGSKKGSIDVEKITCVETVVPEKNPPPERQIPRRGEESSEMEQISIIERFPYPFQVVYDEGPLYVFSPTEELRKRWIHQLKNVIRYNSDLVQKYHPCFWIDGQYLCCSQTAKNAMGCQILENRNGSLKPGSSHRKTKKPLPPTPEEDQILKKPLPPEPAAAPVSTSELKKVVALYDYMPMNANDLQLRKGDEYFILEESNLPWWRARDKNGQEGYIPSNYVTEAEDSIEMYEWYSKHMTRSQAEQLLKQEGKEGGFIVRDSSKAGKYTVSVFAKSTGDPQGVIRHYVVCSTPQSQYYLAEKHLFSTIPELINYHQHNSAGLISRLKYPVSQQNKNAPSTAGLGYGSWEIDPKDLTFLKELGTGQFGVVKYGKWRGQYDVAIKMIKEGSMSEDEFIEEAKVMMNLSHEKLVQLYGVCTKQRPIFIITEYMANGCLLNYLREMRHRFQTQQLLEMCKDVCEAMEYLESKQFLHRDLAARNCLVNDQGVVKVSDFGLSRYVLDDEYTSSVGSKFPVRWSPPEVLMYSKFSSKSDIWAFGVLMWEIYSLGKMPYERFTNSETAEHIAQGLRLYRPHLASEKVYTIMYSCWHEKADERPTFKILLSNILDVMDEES
Sequence of AurA (O14965 whole entry): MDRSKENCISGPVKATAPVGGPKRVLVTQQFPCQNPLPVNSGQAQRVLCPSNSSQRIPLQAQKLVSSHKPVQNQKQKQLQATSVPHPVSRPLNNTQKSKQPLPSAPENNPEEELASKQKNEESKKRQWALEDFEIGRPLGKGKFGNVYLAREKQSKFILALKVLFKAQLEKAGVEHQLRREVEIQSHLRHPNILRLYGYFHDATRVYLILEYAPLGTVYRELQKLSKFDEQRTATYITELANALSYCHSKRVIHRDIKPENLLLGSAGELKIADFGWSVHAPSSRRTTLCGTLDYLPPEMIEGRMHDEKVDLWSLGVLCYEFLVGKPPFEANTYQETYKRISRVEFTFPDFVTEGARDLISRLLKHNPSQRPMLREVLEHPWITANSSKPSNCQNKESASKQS
Sequence of EPHA3 (P29320 21-983, species assumed): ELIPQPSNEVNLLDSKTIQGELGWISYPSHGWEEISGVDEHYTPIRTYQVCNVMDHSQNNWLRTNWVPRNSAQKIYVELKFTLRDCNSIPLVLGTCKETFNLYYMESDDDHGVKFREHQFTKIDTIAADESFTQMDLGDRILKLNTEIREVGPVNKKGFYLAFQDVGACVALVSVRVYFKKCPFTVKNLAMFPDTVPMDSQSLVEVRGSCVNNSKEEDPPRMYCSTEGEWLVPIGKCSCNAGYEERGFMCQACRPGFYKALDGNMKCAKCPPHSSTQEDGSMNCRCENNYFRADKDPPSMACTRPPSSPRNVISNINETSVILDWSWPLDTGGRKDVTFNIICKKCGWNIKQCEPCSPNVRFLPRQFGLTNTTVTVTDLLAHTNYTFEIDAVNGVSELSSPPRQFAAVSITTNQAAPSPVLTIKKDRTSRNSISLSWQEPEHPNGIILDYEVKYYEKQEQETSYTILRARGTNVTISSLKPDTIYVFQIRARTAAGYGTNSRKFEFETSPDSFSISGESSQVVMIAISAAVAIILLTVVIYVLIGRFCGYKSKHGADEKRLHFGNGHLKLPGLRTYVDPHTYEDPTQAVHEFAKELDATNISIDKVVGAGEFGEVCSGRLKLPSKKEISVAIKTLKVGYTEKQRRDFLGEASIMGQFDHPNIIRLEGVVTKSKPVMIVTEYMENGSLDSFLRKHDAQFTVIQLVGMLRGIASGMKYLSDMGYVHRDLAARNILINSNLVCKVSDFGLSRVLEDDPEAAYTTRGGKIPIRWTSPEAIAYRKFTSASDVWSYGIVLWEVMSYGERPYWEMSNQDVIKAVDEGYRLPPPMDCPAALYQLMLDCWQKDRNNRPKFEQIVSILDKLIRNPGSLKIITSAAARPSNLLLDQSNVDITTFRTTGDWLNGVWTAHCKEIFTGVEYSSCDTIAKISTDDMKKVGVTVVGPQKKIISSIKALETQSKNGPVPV
Sequence of PARP7 (Q7Z3E1 whole entry): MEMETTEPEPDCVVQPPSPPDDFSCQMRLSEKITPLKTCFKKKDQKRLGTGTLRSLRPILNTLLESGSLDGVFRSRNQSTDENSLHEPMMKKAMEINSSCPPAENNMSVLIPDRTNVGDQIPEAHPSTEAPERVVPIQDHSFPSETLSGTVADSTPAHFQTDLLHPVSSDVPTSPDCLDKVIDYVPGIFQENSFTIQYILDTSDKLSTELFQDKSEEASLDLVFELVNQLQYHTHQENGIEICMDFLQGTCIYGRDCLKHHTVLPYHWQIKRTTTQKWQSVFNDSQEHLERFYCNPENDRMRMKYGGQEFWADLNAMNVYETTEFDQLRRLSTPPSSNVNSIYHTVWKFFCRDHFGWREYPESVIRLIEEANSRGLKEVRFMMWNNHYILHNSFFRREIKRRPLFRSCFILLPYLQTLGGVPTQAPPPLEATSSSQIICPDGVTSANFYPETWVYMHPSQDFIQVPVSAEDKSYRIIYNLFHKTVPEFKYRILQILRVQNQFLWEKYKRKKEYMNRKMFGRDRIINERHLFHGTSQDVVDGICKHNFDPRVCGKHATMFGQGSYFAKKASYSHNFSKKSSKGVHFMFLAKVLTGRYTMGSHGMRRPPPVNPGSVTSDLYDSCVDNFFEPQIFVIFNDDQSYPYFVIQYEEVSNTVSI
Sequence of CHEK2 (O96017 whole entry): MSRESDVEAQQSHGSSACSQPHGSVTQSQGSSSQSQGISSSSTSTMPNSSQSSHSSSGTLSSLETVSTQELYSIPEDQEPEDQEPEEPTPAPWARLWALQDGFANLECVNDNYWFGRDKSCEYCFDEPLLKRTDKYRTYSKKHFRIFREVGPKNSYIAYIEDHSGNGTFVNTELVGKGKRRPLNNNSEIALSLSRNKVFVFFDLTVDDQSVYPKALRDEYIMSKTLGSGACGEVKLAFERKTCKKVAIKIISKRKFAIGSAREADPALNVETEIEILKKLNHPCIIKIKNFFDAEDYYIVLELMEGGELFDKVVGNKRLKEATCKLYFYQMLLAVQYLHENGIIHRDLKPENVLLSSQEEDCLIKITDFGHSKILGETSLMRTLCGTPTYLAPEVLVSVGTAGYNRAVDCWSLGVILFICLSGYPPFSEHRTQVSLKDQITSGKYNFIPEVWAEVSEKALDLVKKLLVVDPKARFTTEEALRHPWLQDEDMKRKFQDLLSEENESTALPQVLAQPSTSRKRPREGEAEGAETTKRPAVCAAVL
Sequence of CLK3 (P49761 whole entry): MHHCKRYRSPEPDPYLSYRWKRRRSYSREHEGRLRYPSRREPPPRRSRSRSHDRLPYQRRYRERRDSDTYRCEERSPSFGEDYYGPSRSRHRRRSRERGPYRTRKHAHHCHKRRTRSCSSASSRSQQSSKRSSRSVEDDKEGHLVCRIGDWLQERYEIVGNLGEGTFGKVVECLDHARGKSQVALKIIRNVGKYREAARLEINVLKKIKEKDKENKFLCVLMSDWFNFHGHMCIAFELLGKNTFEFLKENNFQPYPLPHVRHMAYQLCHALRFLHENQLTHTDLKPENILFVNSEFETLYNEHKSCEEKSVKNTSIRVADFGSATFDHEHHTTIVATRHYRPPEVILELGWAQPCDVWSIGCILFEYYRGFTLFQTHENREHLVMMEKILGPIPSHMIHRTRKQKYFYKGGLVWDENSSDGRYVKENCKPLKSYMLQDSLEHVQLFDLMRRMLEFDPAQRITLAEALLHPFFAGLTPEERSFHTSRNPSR

With `NC(N)=NCCC[C@H](NCN1CCN(C(=O)c2cc(Cc3n[nH]c(=O)c4ccccc34)ccc2F)CC1)C(=O)O` [PPNR-4] the pIC50 (EPHA3) was less than 5.00, the tube formation (HUVECs; 2, 6, and 18 μM, compared with the control group) was “significantly interfered with tube formation in a dose-dependent manner” and the activity at 6 µM (HUVECs; Homo sapiens, HUVEC, 8 h, 6 μM, 8 h, single replicates, read-out: Relative number of tube formations (% of control)) was 6%. The activity at 18 µM (HUVECs; Homo sapiens, HUVEC, 8 h, 18 μM, 8 h, single replicates, read-out: Relative number of tube formations (% of control)) was 0%, the pIC50 (ALK4) was less than 5.00 and the pIC50 (PARP10 [1]) was less than 5.00. The pIC50 (HIPK2) was less than 5.00, the pIC50 (AurA) was less than 5.00 and the pIC50 (AMPKα2/β1/γ1) was less than 5.00. It also gave a pIC50 (NIM1K) of less than 5.00, a pIC50 (ABL2) of less than 5.00 and a pIC50 (DDR2) of less than 5.00. It also gave a pKd (PARP3) of less than 5.00, a pKd (PARP2) of less than 5.00 and a pKd (PARP10 [2]) of less than 5.00. The pKd (PARP12) was less than 5.00, the pKd (CHEK2) was less than 5.00 and the pKd (PARP15) was less than 5.00. For the same compound, the pKd (PARP7) was less than 5.00, the pKd (PARP13) was less than 5.00 and the pKd (RAD51) was less than 5.00. It also gave a pKd (PARP9) of less than 5.00, a pKd (NRP2) of less than 5.00 and a pKd (ATR) of less than 5.00. For the same compound, the pKd (PARP8) was less than 5.00, the pKd (PARP14) was less than 5.00 and the pIC50 (EPHA1) was less than 5.00. The pIC50 (CLK3) was less than 5.00, the bioavailability [3] was 66.5% and the AUC ([3]; SD rats, p.o) was 8020 ng·h/mL. The Cmax ([3]; SD rats, p.o) was 812 ng/mL, the half-life ([3]; SD rats, p.o) was 2.71 h and the pIC50 (FAK) was less than 5.00. The pIC50 (BTK) was less than 5.00, the pIC50 (AKT3) was less than 5.00 and the pIC50 (EPHB1) was less than 5.00. The pIC50 (CK1δ) was less than 5.00, the pIC50 (INSR) was less than 5.00 and the pIC50 (FER) was less than 5.00. It also gave a pIC50 (EPHA2) of less than 5.00.
